Measured values published in article PMC12307812 (Nature Communications, 2025).
pIC50: −log10 of the molar value.

Key:
[1] = test system: SARS-CoV-2 Delta variant AY.1; test: microbe, parasite or virus in culture; assay type: cell-based; settings: for mean log10(PFU/ml): AY.1; for pIC50: Severe acute respiratory syndrome coronavirus 2, Calu-3, 48 h, read-out: IC50, live SARS-CoV-2 infection AY.1 (Delta)
[2] = test system: SARS-CoV-2 Omicron variant KP.3.1.1; test: microbe, parasite or virus in culture; assay type: cell-based; settings: for mean log10(PFU/ml): KP.3.1.1; for pIC50: Severe acute respiratory syndrome coronavirus 2, Calu-3, 48 h, read-out: IC50, live SARS-CoV-2 infection KP.3.1.1

Structure (SMILES) | mean log10(PFU/ml) ([1]; concentration 5 nM) | mean log10(PFU/ml) ([1]; concentration 50 nM) | mean log10(PFU/ml) ([1]; concentration 500 nM) | mean log10(PFU/ml) ([1]; concentration 5000 nM) | mean log10(PFU/ml) ([1]; concentration 50000 nM) | pIC50 [1] | mean log10(PFU/ml) ([2]; concentration 5 nM) | mean log10(PFU/ml) ([2]; concentration 50 nM) | mean log10(PFU/ml) ([2]; concentration 500 nM) | mean log10(PFU/ml) ([2]; concentration 5000 nM) | mean log10(PFU/ml) ([2]; concentration 50000 nM) | pIC50 [2]
CN(C)C(=O)COC(=O)Cc1ccc(OC(=O)c2ccc(NC(=N)N)cc2)cc1 [camostat] | 7.732 log10(PFU/ml) | 7.059 log10(PFU/ml) | 6.615 log10(PFU/ml) | 4.492 log10(PFU/ml) | 3.6181 log10(PFU/ml) | 7.66 | 7.955 log10(PFU/ml) | 6.207 log10(PFU/ml) | 5.0218 log10(PFU/ml) | 1.958 log10(PFU/ml) | 1.699 log10(PFU/ml) | 7.42
CC(C)(C)NC(=O)N1CCN(C(=O)N2C(=O)C(CCCNC(=N)N)C2C(=O)O)CC1 (stereo not drawn) [BMS-262084] | 7.781 log10(PFU/ml) | 5.891 log10(PFU/ml) | 3.176 log10(PFU/ml) | 2.572 log10(PFU/ml) | 2.538 log10(PFU/ml) | 8.06 | 7.893 log10(PFU/ml) | 4.129 log10(PFU/ml) | 1.9 log10(PFU/ml) | 1.699 log10(PFU/ml) | 1.498 log10(PFU/ml) | 8.10
